Test results as given in BindingDB's records for doi:10.1021/bi1005283 (Merck Research Laboratories, 2010).

Target: T1, Kinesin-like protein KIF11 (Homo sapiens, UniProt P52732)
T1 sequence (P52732 whole entry): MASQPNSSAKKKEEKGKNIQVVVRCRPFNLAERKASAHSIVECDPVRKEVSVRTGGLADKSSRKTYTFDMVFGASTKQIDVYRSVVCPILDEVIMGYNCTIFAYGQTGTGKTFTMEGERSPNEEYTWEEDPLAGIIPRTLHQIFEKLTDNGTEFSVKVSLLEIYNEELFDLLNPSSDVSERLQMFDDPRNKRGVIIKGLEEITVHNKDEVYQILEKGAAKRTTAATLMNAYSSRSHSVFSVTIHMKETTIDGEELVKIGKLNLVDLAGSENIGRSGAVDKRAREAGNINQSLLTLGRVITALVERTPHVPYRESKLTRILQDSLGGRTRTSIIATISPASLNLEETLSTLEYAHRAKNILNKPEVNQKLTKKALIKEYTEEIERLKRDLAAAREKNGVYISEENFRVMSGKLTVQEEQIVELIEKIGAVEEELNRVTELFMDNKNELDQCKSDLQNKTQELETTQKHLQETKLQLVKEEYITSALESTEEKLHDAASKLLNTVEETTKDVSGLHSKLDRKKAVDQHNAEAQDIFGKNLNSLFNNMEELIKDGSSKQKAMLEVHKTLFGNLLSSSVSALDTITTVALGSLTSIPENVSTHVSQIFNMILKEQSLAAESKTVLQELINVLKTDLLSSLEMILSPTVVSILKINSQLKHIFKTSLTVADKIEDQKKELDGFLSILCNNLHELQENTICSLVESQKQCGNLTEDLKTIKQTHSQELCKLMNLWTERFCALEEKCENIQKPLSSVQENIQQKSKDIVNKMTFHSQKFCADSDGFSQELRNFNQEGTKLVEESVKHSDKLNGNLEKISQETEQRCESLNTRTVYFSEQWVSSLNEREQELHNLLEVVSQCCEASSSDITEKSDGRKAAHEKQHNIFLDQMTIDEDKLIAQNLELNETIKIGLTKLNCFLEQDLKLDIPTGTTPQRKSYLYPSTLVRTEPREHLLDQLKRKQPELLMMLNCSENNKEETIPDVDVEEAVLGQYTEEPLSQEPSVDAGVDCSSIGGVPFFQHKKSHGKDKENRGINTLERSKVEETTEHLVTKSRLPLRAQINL
Test: Binding Assay
Source text: Binding assay using temperature-dependent circular dichroism (TdCD). In TdCD, the loss of protein secondary structure was monitored as a function of temperature. Proteins bound with ligand become more resistant to thermal unfolding compared to the unliganded protein because of the additional stabilization interactions created between the ligand and protein.

| Kd | SMILES |
| --- | --- |
| 1200 nM | COc1ccc(Nc2nc3cc(C(=O)O)ccc3n2Cc2ccccc2C(F)(F)F)cc1 |
| 2000 nM | CSc1ccc(Nc2nc3cc(C(N)=O)ccc3n2Cc2ccccc2C(F)(F)F)cc1 [KSP Inhibitor, 4a] |
| 2500 nM | CS(=O)(=O)c1ccc(Nc2nc3cc(C(N)=O)ccc3n2Cc2ccccc2C(F)(F)F)cc1 [KSP Inhibitor, 4b] |
| 14000 nM | O=C(O)c1ccc2c(c1)nc(Nc1ccc(OCc3ccccc3)cc1)n2Cc1ccccc1C(F)(F)F [KSP Inhibitor, 4c] |
| 5000 nM | COc1ccc(Nc2nc3cc(C(=O)O)ccc3n2Cc2ccccc2OC)cc1 [KSP Inhibitor, 4d] |
| 600 nM | NC(=O)c1ccc2c(c1)nc(Nc1ccc(S(N)(=O)=O)cc1)n2Cc1ccccc1C(F)(F)F [KSP Inhibitor, 4e] |
| 3400 nM | COc1ccc(Nc2nc3cc(C(=O)O)ccc3n2Cc2ccccc2OC(F)(F)F)cc1 [KSP Inhibitor, 4g] |
